The values below come from US20260035384A1, “COMPOUND CONTAINING CYCLOHEXYL” (CHIA TAI TIANQING PHARMACEUTICAL GROUP CO., LTD., priority 2022, published 2026).

In data set [1] the test system is LNCaP cells. In words: Assay on inhibitory activity for LNCaP cell proliferation (CCK-8). In kind it is cell-based. The settings on record: 168 h incubation. A digest of the protocol:
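Cells seeded at 1×10^5 cells/mL in phenol red-free 1640 with 2% CSS-FBS, treated at final 10000 nM-0.61 nM in duplicate. After 168 h incubation, viability read with CCK-8.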

Data set [2] addresses T1, AR in VCaP cells (Homo sapiens, UniProt P10275).
T1 construct: Assay on Degradation Activity for AR in VCaP Cells; endogenous in cells; host or cells: VCaP cells
T1 sequence (P10275 1-920): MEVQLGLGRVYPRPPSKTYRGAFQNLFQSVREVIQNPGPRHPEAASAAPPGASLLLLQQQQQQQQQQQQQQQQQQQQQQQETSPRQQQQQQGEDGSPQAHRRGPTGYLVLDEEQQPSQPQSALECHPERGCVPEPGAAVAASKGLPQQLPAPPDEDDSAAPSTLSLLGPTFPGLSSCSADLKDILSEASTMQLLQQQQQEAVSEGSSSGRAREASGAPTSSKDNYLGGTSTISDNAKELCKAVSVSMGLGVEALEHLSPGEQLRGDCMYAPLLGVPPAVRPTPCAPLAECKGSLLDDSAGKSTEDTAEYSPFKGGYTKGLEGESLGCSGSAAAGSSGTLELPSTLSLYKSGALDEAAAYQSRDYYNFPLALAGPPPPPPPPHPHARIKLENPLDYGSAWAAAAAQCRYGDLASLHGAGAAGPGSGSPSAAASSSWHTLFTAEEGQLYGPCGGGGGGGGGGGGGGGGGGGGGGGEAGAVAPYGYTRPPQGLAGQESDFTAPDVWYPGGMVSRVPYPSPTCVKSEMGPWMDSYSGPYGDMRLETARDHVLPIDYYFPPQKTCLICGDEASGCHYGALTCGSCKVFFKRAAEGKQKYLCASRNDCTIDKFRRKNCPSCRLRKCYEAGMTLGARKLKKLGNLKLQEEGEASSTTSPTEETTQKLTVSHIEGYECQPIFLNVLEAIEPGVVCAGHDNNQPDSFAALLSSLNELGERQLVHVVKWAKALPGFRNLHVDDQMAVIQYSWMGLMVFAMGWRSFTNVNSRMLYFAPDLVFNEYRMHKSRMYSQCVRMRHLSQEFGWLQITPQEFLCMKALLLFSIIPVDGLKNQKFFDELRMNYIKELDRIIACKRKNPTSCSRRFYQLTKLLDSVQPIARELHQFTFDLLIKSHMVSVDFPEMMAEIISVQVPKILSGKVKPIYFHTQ
In words: Assay on degradation activity for AR in VCaP cells (HTRF human androgen receptor detection kit). It counts as cell-based. As to conditions: 24 h incubation. A digest of the protocol:
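VCaP cells seeded overnight in 2% CSS-FBS phenol red-free DMEM, then treated 24 h with compound at 1000 nM–0.977 nM final, in duplicate. Lysates probed with AR Eu cryptate/d2 antibody HTRF (2 h, 25° C., 665/620 nm); DC50 and Dmax from four-parameter dose-response fits.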
On the technique in general: TR-FRET usually uses a lanthanide donor and a delayed reading to cut background.

The nature of data set [3]: Mouse pharmacokinetics. It counts as in vivo, ICR mice. As to the method:
ICR mice weighing 18-22 g were randomized into groups of 9 after 3-5 days of acclimatization, and then intragastrically given the test compound solution at a dose of 10 mg/kg and intravenously injected with the test compound solution at a dose of 1 mg/kg.
Blood sampling time points for the intragastrical administration group were 15 min, 0.5 h, 1 h, 2 h, 3 h, 4 h, 6 h, 8 h, 10 h, and 24 h, and blood sampling time points for the intravenous injection administration group were […], 15 min, 0.5 h, 1 h, 2 h, 4 h, 6 h, 8 h, 10 h, and 24 h; blood was collected from the orbit to prepare plasma samples to be tested. 30 μL of each of the plasma samples to be tested and a standard curve sample were taken, and an acetonitrile solution containing an internal standard was added. Supernatants were obtained by protein precipitation, diluted, and then assayed by LC/MS/MS. Pharmacokinetic parameters were fitted using a non-compartmental model (see Table 6).

Data set [4] in a line: In vitro stability in liver microsome. It counts as in vitro ADME. The settings on record: human liver microsome 0.5 mg/mL, NADPH, 37° C. Here is the method:
Liver microsome incubation samples (species: human, monkey, rat, and mouse) were prepared by mixing a PBS buffer (pH=7.4), a liver microsome solution (0.5 mg/mL), a test compound, and an NADPH+MgCl2 solution and incubated at 37° C. and 300 rpm for 1 h. Zero-hour samples were prepared by mixing a PBS buffer (pH=7.4), a liver microsome solution (0.5 mg/mL), and a test compound. An acetonitrile solution containing an internal standard was added to the samples, and supernatants were prepared by protein precipitation, diluted, and then assayed by LC/MS/MS.
For orientation: Liver microsomes are vesicles of endoplasmic reticulum, rich in cytochrome P450 enzymes.

Data set [5] relates to VCaP cells. In words: Assay on inhibitory activity for VCaP cell proliferation (CCK-8). It counts as cell-based. As to conditions: 168 h incubation. The essentials:
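VCaP cells seeded at 1×10^5 cells/mL in phenol red-free DMEM with 5% charcoal-stripped FBS, treated in duplicate at 10000–0.61 nM final. After 168 h incubation, viability was read with CCK-8.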

The target in data set [6] is T2, AR in LNCaP cells (Homo sapiens, UniProt P10275, T878A).
T2 construct: Assay on Degradation Activity for AR in LNCaP Cells; endogenous in cells; host or cells: LNCaP cells
T2 sequence (P10275 1-920 T878A): T1 sequence (P10275 1-920) with T878A
In words: Assay on degradation activity for AR in LNCaP cells (HTRF human androgen receptor detection kit). In kind it is cell-based. As to conditions: 24 h incubation. A digest of the protocol:
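LNCaP cells seeded in 2% CSS-FBS phenol red-free 1640 medium overnight, then treated in duplicate with 500 nM–0.488 nM compound for 24 h. AR in lysates quantified by HTRF (Eu cryptate/d2 antibodies, 2 h, 25 °C, 665/620 nm); DC50 and Dmax from four-parameter fits.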

Where [7] appears, read: ICR, mouse, plasma, iv, 1 mg/kg, Mouse i.v. 1 mpk.
Setting [8] is: ICR, mouse, plasma, iv, 1 mg/kg, Mouse i.v. 1 mpk, read-out: AUC.
Setting [9] is: ICR, mouse, plasma, po, 10 mg/kg, Mouse i.g. 10 mpk vs i.v. 1 mpk.
The mark [10] stands for this setting: ICR, mouse, plasma, po, 10 mg/kg, Mouse i.g. 10 mpk, read-out: AUC.
Where [11] appears, read: ICR, mouse, plasma, po, 10 mg/kg, Mouse i.g. 10 mpk, read-out: Cmax.

As a reminder, the IC50 is the midpoint of a concentration-inhibition curve. In general, DC50 refers to the midpoint of the concentration-degradation curve. Read a high DC50 as a less potent degrader. As usually defined, the clearance is the rate of elimination divided by the concentration. Read a high clearance as efficient removal. The half-life is the time in which the quantity being followed falls by half. Broadly, the AUC is concentration integrated over time. In general, bioavailability refers to the share of a dose that reaches the circulation, judged against a reference dose that is usually intravenous. As usually defined, the Cmax is the peak of the concentration-time curve. A word on the Dmax: it is the largest share of the target that was removed. A higher Dmax goes with deep degradation.

Positions count from the first letter of the chain named. Where two headings read alike, the source gives them in different places.

Regarding `N#Cc1ccc(O[C@H]2CC[C@H](NC(=O)c3ccc(N4CCC(CN5Cc6ccc7c(C8CCC(=O)NC8=O)noc7c6C5)CC4)nn3)CC2)cc1Cl` (some centres unmarked) [Compound 17], the half-maximal inhibitory concentration (IC50) was less than 1000 nM in data set [1] (Homo sapiens) and less than 1000 nM in data set [5] (Homo sapiens, VCaP, 168 h). Also, the 50% degradation concentration (DC50) in data set [2] is no more than 1 nM. This compound gave a clearance in data set [3] (setting [7]) of 4.72 mL/min/kg. Besides, the half-life is 7.28 h in data set [3] (setting [7]) and 6.82 h in data set [3] (ICR, mouse, plasma, po, 10 mg/kg, Mouse i.g. 10 mpk). The values for the AUC in data set [3] (setting [8]) and in data set [3] (setting [10]) were 3160 ng·h/mL and 14600 ng·h/mL, respectively. In addition, the bioavailability in data set [3] (setting [9]) was 46%. In addition, in data set [3] (setting [11]), the Cmax is 1160 ng/mL. In data set [4], the “Human liver microsome Residuals at 60 min (%)” value is reported as greater than 85%.
On to `N#Cc1ccc(O[C@H]2CC[C@H](NC(=O)c3ccc(N4CCN(CC5Cc6ccc7c(C8CCC(=O)NC8=O)noc7c6C5)CC4)nn3)CC2)cc1Cl` (some centres unmarked) [Compound 26], for which the IC50 in data set [1] (Homo sapiens) was less than 1000 nM; in data set [5] (Homo sapiens, VCaP, 168 h), less than 100 nM. This compound displayed a DC50 in data set [2] of no more than 1 nM. In addition, the clearance in data set [3] (setting [7]) was 2.78 mL/min/kg. In data set [3] (setting [7]), this compound had a half-life of 7.58 h. Further, the area under the curve (AUC) in data set [3] (setting [8]) came to 5350 ng·h/mL; in data set [3] (setting [10]), 13200 ng·h/mL. The compound also yielded a bioavailability in data set [3] (setting [9]) of 24.8%. For the same compound, in data set [3] (setting [11]), the Cmax was determined as 886 ng/mL. Besides, the “t1/2” value in data set [3] (Mouse i.g. 10 mpk) stood at 11 h. The “Human liver microsome Residuals at 60 min (%)” value in data set [4] is greater than 85%.
Take `N#Cc1ccc(O[C@H]2CC[C@H](NC(=O)c3ccc(N4CCN(CC5Cc6ccc7c(C8CCC(=O)NC8=O)noc7c6C5)CC4)nn3)CC2)cc1Cl` (some centres unmarked) [Compound 27]: the half-inhibitory concentration (IC50) in data set [1] is less than 1000 nM. Besides, the DC50 in data set [2] was no more than 1 nM. In data set [3] (Mouse i.g. 10 mpk), the “AUC” value worked out at 20072 ng·h/mL, the “Cmax” value is listed as 1503 ng/mL and the “t1/2” value is on record as 5.47 h. Moreover, the “F(%)” value in data set [3] (Mouse i.g. 10 mpk vs i.v. 1 mpk) came to 35.85%. Besides, in data set [3] (Mouse i.v. 1 mpk, 1 mg/kg), the “AUC” value amounted to 5599 ng·h/mL, the “Cl” value came to 2.63 mL/min/kg and the “t1/2” value worked out at 7.6 h. In addition, the “Human liver microsome Residuals at 60 min (%)” value in data set [4] was greater than 85%. Moreover, in data set [5], the IC50 was less than 100 nM.
For `N#Cc1ccc(O[C@H]2CC[C@H](NC(=O)c3ccc(N4CCC(N5CC(CN6Cc7ccc8c(C9CCC(=O)NC9=O)noc8c7C6)C5)CC4)nn3)CC2)cc1Cl` (some centres unmarked) [Compound 90], the DC50 in data set [2] is no more than 1 nM; in data set [6] (HTRF) it was no more than 20 nM. Further, the maximal degradation (Dmax) in data set [6] (maximum degradation rate) was greater than 80%. Besides, the “Human liver microsome Residuals at 60 min (%)” value in data set [4] was greater than 85%. This compound also showed an IC50 in data set [5] (Homo sapiens) of less than 10 nM.
